Laboratory results as given in PubChem BioAssay (NCI).
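Grown in 96-well plates, cells were treated for 48 hours with each compound at five concentrations. Insufficient inhibition: endpoint recorded as highest concentration tested. Here, GI50 denotes the concentration required for 50% inhibition of growth. The concentration for full growth arrest is given as TGI.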

Assays:
Assay in all cases: NCI anticancer screen, dose series, 48 h
MALME-3M melanoma = test system: MALME-3M melanoma
NCI-H522 lung = test system: NCI-H522 lung
SF-539 CNS = test system: SF-539 CNS
NCI/ADR-RES ovarian = test system: NCI/ADR-RES ovarian
CAKI-1 renal = test system: CAKI-1 renal
M14 melanoma = test system: M14 melanoma
UACC-257 melanoma = test system: UACC-257 melanoma
NCI-H226 lung = test system: NCI-H226 lung
K-562 leukemia = test system: K-562 leukemia
SK-MEL-2 melanoma = test system: SK-MEL-2 melanoma

Compound `CC(=O)Nc1ccc2c(c1)C(=O)c1cccc(F)c1-2` has a TGI (MALME-3M melanoma) of over 100 µM, a TGI (NCI-H522 lung) of over 100 µM and a TGI (SF-539 CNS) of over 100 µM. For the same compound, the TGI (NCI/ADR-RES ovarian) was over 100 µM, the TGI (CAKI-1 renal) was over 100 µM and the TGI (M14 melanoma) was over 100 µM. For the same compound, the TGI (UACC-257 melanoma) was over 100 µM, the TGI (NCI-H226 lung) was over 100 µM and the TGI (K-562 leukemia) was over 100 µM. For the same compound, the TGI (SK-MEL-2 melanoma) was over 100 µM.
`O=C(N/N=c1/ccoc2cccnc12)N1CCN(c2ncccn2)CC1` was tested, and the GI50 (MALME-3M melanoma) was 1.17 µM, the TGI (MALME-3M melanoma) was 7.22 µM and the GI50 (NCI-H522 lung) was 1.02 µM. The TGI (NCI-H522 lung) was 17.2 µM, the GI50 (SF-539 CNS) was 1.39 µM and the TGI (SF-539 CNS) was 9.58 µM. It also gave a GI50 (NCI/ADR-RES ovarian) of under 0.0193 µM, a TGI (NCI/ADR-RES ovarian) of 12.3 µM and a GI50 (CAKI-1 renal) of 0.425 µM. It also gave a TGI (CAKI-1 renal) of 7.64 µM, a GI50 (M14 melanoma) of 0.0831 µM and a TGI (M14 melanoma) of 2.59 µM. It also gave a GI50 (UACC-257 melanoma) of 0.0387 µM, a TGI (UACC-257 melanoma) of 5.15 µM and a TGI (NCI-H226 lung) of 2.56 µM. It also gave a GI50 (K-562 leukemia) of under 0.01 µM, a TGI (K-562 leukemia) of 4.82 µM and a GI50 (SK-MEL-2 melanoma) of 1.11 µM. The TGI (SK-MEL-2 melanoma) was 8.42 µM.
`Cn1c(=O)c2[nH]c(C3CC(=O)CC(c4nc5c([nH]4)c(=O)n(C)c(=O)n5C)N3)nc2n(C)c1=O` (centres undefined) gave a TGI (MALME-3M melanoma) of over 100 µM, a TGI (NCI-H522 lung) of over 100 µM and a TGI (SF-539 CNS) of over 100 µM. The TGI (NCI/ADR-RES ovarian) was over 100 µM, the TGI (CAKI-1 renal) was over 100 µM and the TGI (M14 melanoma) was over 100 µM. For the same compound, the TGI (UACC-257 melanoma) was over 100 µM, the TGI (NCI-H226 lung) was over 100 µM and the TGI (K-562 leukemia) was over 100 µM. For the same compound, the TGI (SK-MEL-2 melanoma) was over 100 µM.
In the case of `N#Cc1c(-c2ccc(Cl)cc2)c(-c2ccc(Cl)cc2)nn(CCOC(=O)CCC(=O)O)c1=O`, the TGI (MALME-3M melanoma) is reported as 74.9 µM, the TGI (NCI-H522 lung) is reported as 4.88 µM and the TGI (SF-539 CNS) is reported as 1.49 µM. The TGI (NCI/ADR-RES ovarian) was over 12.9 µM, the TGI (CAKI-1 renal) was 22.9 µM and the TGI (M14 melanoma) was 28.5 µM. For the same compound, the TGI (UACC-257 melanoma) was over 100 µM, the TGI (NCI-H226 lung) was 1.42 µM and the TGI (K-562 leukemia) was 41 µM. The TGI (SK-MEL-2 melanoma) was 28.2 µM.
In the case of `Cc1nc(N)sc1N=Nc1cc(Cl)c([N+](=O)[O-])cc1Cl`, the TGI (MALME-3M melanoma) is reported as 32.7 µM, the TGI (NCI-H522 lung) is reported as 35.5 µM and the TGI (SF-539 CNS) is reported as 41.8 µM. It also gave a TGI (NCI/ADR-RES ovarian) of 70.4 µM, a TGI (CAKI-1 renal) of 68.5 µM and a TGI (M14 melanoma) of over 100 µM. The TGI (UACC-257 melanoma) was 44.7 µM, the TGI (NCI-H226 lung) was 44.4 µM and the TGI (K-562 leukemia) was 30 µM. The TGI (SK-MEL-2 melanoma) was 60 µM.
